In patent US20220298253A1, “TREATMENT OF RMS BY SWITCHING THERAPY” (Novartis AG, priority 2019, published 2022):
“Also recorded” adds a separate entry of the source. Where two headings read alike, the source gives them in different places.

How the values were obtained:
MS patients [1] = assay: ASCLEPIOS I: loss of thalamus volume; format: in vivo, human; conditions: for thalamus volume, mean percentage change between Month 24 and baseline: ASCLEPIOS I
Procedure: (§1) In ASCLEPIOS I patients were randomised (1:1) to receive either ofatumumab 20 mg sc injections every 4 weeks (after an initial loading regimen of 20 mg sc doses on Days 1, 7 and 14) or teriflunomide 14 mg orally once daily, for up to 30 months. Patients aged 18-55 years with an Expanded Disability Status Scale (EDSS) score (according to Kurtzke, Neurology. 1983, November; 33(11): 1444-52) of 0-5.5 at screening who experienced ≥1 relapse in the past year or ≥2 relapses in the past 2 years or a positive gadolinium-enhancing (Gd+) MM scan during the year before randomisation were included.

MS patients [2] = assay: ASCLEPIOS I: MSIS-29 impact score; format: in vivo, human
Procedure: The MSIS-29 version 2 is a 29-item, self-administered questionnaire that includes 2 domains: physical and psychological. Responses were captured on a 4-point ordinal scale ranging from 1 (not at all) to 4 (extremely), with higher scores reflecting greater impact on day-to-day life. The MSIS-29 takes about 5 minutes to complete and the questions are designed to determine the patient's views about the impact of MS on their day-to-day life during the past 2 weeks. Reference is made to Hobart J and Cano S (2009), “Improving the evaluation of therapeutic interventions in multiple sclerosis: the role of new psychometric methods”, Health Technol Assess; 13(12):iii, ix-x, […] to Hobart J, Lamping D, Fitzpatrick R, et al (2001), “The Multiple Sclerosis Impact Scale (MSIS-29): a new patient-based outcome measure”, Brain; 124(Pt 5):962-73.
as §1

[3] = test system: patients with multiple sclerosis; conditions: cited from earlier work; for clinical and MRI course after anti-CD20 infusion: case reports, rebound after fingolimod cessation (Hatcher et al. 2016; Schmidt and Schulten 2019)
primary human B cells [4] = assay: Ofatumumab-induced CDC of freshly isolated primary human B cells; format: cell-based; conditions: antibody and 30% human serum added simultaneously, 1 hour, flow cytometry; compared to ocrelizumab and rituximab; FIG. 2
primary human B cells [5] = assay: CDC after delayed addition of complement; format: cell-based; conditions: cells washed, complement source added after 6 hours; FIG. 3
Procedure: In a second experiment, B cells were incubated with antibody as described before, albeit in the absence of a source of complement. Cells were washed as described previously. After 6 hours, the source of complement was added.

[6] = test system: patients with relapsing MS; assay: Number of relapses in patients switched from an earlier DMT to ofatumumab (Example 2); format: in vivo, human; conditions: for Mean NURLP12: number of relapses in past 12 months (screening) / Mean NURLP24a: number of relapses in past 24 months (screening): before switch
Procedure: (§2) The effect of ofatumumab administered to patients who have been treated with DMTs other than ofatumumab has been investigated as described below.
(§3) Ofatumumab was provided in pre-filled syringes for subcutaneous administration containing 20 mg ofatumumab (50 mg/ml, 0.4 ml content). The matching placebo to ofatumumab pre-filled syringe had the same appearance as the investigational drug.
(§4) Ofatumumab arm: ofatumumab 20 mg s.c. injections on Day 1, 7, 14, Week 4 (Study Month 1) and every 4 weeks thereafter+teriflunomide-matching placebo capsule orally once daily.
(§5) Eligible patients can be randomized in a 1:1 ratio to either the active ofatumumab 20 mg group or to the active teriflunomide 14 mg group. The randomization was stratified by geographical region and by MS subtype (RRMS, SPMS).
(§6) Diagnosis of MS according to the 2010 Revised McDonald criteria (Polman et al. 2011).
(§7) Relapsing MS: relapsing-remitting course (RRMS), or secondary progressive (SPMS) course with disease activity, as defined by Lublin et al., 2014.
(§8) Disability status at Screening with an EDSS score of 0 to 5.5 (inclusive).
(§9) Patients previously treated with DMT selected from glatiramer acetate, dimethyl fumarate (DMF), daclizumab, fingolimod, natalizumab and laquinimod.
(§10) Documentation of at least: 1 relapse during the previous 1 year OR 2 relapses during the previous 2 years prior to Screening OR a positive Gd-enhancing MM scan during the year prior to randomization. Note: Screening MRI scan may be used if no positive Gd enhancing scan exist from prior year.
(§11) Neurologically stable within 1 month prior to randomization

[7] = test system: patients with relapsing MS; assay: Gd-enhancing T1 lesion numbers in patients switched from an earlier DMT to ofatumumab (Example 2); format: in vivo, human
Procedure: as §2, §3, §4, §5, §6, §7, §8, §9, §10, §11
The following results were obtained for the Gd lesion numbers.

[8] = Half-life of ofatumumab at steady state; format: in vivo; conditions: following subcutaneous administration of repeated 20 mg doses
MS patients [9] = conditions: cited from earlier work; for reduction in annualized relapse rate (ARR) compared to Aubagio (teriflunomide): p<0.001
[10] = earlier DMT fingolimod, ofatumumab 20 mg s.c.
[11] = earlier DMT fingolimod, ofatumumab 20 mg s.c., listed as OMB

**Q.** Which “thalamus volume, mean percentage change between Month 24 and baseline” value (MS patients [1]) does the source give for C/C(O)=C(\C#N)C(=O)Nc1ccc(C(F)(F)F)cc1 [teriflunomide, reference compound] here?
**A.** The value was −1.4%.

**Q.** And the “mean change in MSIS-29 physical impact score from baseline” value (“mean change” below) (MS patients [2]; Month 6)?
**A.** Its value is −0.44.

**Q.** And the “mean change” value (MS patients [2]; Month 12)?
**A.** The value was 0.17.

**Q.** What about the “mean change” value (MS patients [2]; Month 18) of the same compound?
**A.** Its value is 0.67.

**Q.** And the “mean change” value (MS patients [2]; Month 24)?
**A.** The value was 0.59.

**Q.** What about the “mean change” value (MS patients [2]; Month 30) of the same compound?
**A.** The value was 0.55.

**Q.** For “ocrelizumab: anti-CD20 mAb administered by intravenous infusion”, which “clinical and MRI course after anti-CD20 infusion” value [3] is on record?
**A.** Its value is “clinical worsening and new Gd-enhancing MRI lesions”.

**Q.** And the “EDSS course after administration” value ([3]; two patients, more than 3 months after fingolimod withdrawal, FIG. 1)?
**A.** The value was “significant Expanded Disability Status Scale (EDSS) progression”.

**Q.** Which results are given for “ofatumumab: recombinant human monoclonal immunoglobulin G1 (IgG1) antibody that binds to human CD20”?
**A.** induction of CDC (B cell lysis, SYTOX Blue+ cells) (primary human B cells [4]): strong concentration-dependent induction; induction of CDC after delayed addition of complement (primary human B cells [5]): potently induced CDC; Mean NCFRLP12: number of relapses up to month 12 post-first dose ([6]; earlier DMT DMF): 0.21; Mean NCFRLP24: number of relapses up to month 24 post-first dose ([6]; earlier DMT DMF): 0.39; Mean NURLP12: number of relapses in past 12 months (screening) ([6]; earlier DMT DMF): 1.11; Mean NURLP24a: number of relapses in past 24 months (screening) ([6]; earlier DMT DMF): 2; Mean NCFRLP12: number of relapses up to month 12 post-first dose ([6]; earlier DMT daclizumab): 0; Mean NCFRLP24: number of relapses up to month 24 post-first dose ([6]; earlier DMT daclizumab): 0; Mean NURLP12: number of relapses in past 12 months (screening) ([6]; earlier DMT daclizumab): 1; Mean NURLP24a: number of relapses in past 24 months (screening) ([6]; earlier DMT daclizumab): 1.18; Mean NURLP12: number of relapses in past 12 months (screening) ([6]; earlier DMT fingolimod): approx. 1.26; Mean NURLP24a: number of relapses in past 24 months (screening) ([6]; earlier DMT fingolimod): 2.28; Mean NURLP12: number of relapses in past 12 months (screening) ([6]; earlier DMT fingolimod, listed as OMB): 1.26; Mean NCFRLP12: number of relapses up to month 12 post-first dose [6, 10]: approx. 0.23; Mean NCFRLP24: number of relapses up to month 24 post-first dose [6, 10]: about 0.30; Mean NCFRLP12: number of relapses up to month 12 post-first dose [6, 11]: 0.23; Mean NCFRLP24: number of relapses up to month 24 post-first dose [6, 11]: 0.31; Mean NCFRLP12: number of relapses up to month 12 post-first dose ([6]; earlier DMT glatiramer acetate): 0.10; Mean NCFRLP24: number of relapses up to month 24 post-first dose ([6]; earlier DMT glatiramer acetate): 0.17; Mean NURLP12: number of relapses in past 12 months (screening) ([6]; earlier DMT glatiramer acetate): 1.21; Mean NURLP24a: number of relapses in past 24 months (screening) ([6]; earlier DMT glatiramer acetate): 2.13; Mean NCFRLP12: number of relapses up to month 12 post-first dose ([6]; earlier DMT natalizumab): 0.13; Mean NCFRLP24: number of relapses up to month 24 post-first dose ([6]; earlier DMT natalizumab): 0.2; Mean NURLP12: number of relapses in past 12 months (screening) ([6]; earlier DMT natalizumab): 1.2; Mean NURLP24a: number of relapses in past 24 months (screening) ([6]; earlier DMT natalizumab): 2.37; Mean Gd lesion number ([7]; earlier DMT DMF, BASELINE): 2.02; Mean Gd lesion number ([7]; earlier DMT DMF, Week 48): 0; Mean Gd lesion number ([7]; earlier DMT DMF, Week 96): 0; Mean Gd lesion number ([7]; earlier DMT daclizumab, BASELINE): 0.18; Mean Gd lesion number ([7]; earlier DMT daclizumab, Week 48): 0; Mean Gd lesion number ([7]; earlier DMT daclizumab, Week 96): 0; Mean Gd lesion number ([7]; earlier DMT fingolimod, BASELINE): 2.95; Mean Gd lesion number ([7]; earlier DMT fingolimod, Week 48): 0.03; Mean Gd lesion number ([7]; earlier DMT fingolimod, Week 96): 0; Mean Gd lesion number ([7]; earlier DMT glatiramer acetate, BASELINE): 1.52; Mean Gd lesion number ([7]; earlier DMT glatiramer acetate, Week 48): 0.02; Mean Gd lesion number ([7]; earlier DMT glatiramer acetate, Week 96): 0.02; Mean Gd lesion number ([7]; earlier DMT natalizumab, BASELINE): 2.5; Mean Gd lesion number ([7]; earlier DMT natalizumab, Week 48): 0.04; Mean Gd lesion number ([7]; earlier DMT natalizumab, Week 96): 0; thalamus volume, mean percentage change between Month 24 and baseline (MS patients [1]): −1.00%; thalamus volume change, mean difference ofatumumab vs teriflunomide (MS patients [1]; Month 24, p=0.002): 0.40; mean change in MSIS-29 physical impact score from baseline (MS patients [2]; Month 6): −2.75; MSIS-29 physical impact score, mean difference ofatumumab vs teriflunomide (MS patients [2]; Month 6, p=0.017): −2.30; mean change in MSIS-29 physical impact score from baseline (MS patients [2]; Month 12): −2.43; MSIS-29 physical impact score, mean difference ofatumumab vs teriflunomide (MS patients [2]; Month 12, p=0.009): −2.59; mean change in MSIS-29 physical impact score from baseline (MS patients [2]; Month 18): −2.37; MSIS-29 physical impact score, mean difference ofatumumab vs teriflunomide (MS patients [2]; Month 18, p=0.005): −3.05; mean change in MSIS-29 physical impact score from baseline (MS patients [2]; Month 24): −2.6; MSIS-29 physical impact score, mean difference ofatumumab vs teriflunomide (MS patients [2]; Month 24, p=0.008): −3.19; mean change in MSIS-29 physical impact score from baseline (MS patients [2]; Month 30): −3.21; MSIS-29 physical impact score, mean difference ofatumumab vs teriflunomide (MS patients [2]; Month 30, p=0.026): −3.76; MSIS-29 psychological impact score vs teriflunomide treatment group (MS patients [2]; difference statistically significant only at Month 12): stronger reduction; half-life at steady state [8]: approximately 16 days; suppression of gadolinium (Gd) T1 lesions compared to Aubagio (MS patients [9]; ASCLEPIOS I/II): highly significant suppression; annualized relapse rate (ARR) (MS patients [9]; ASCLEPIOS I): 0.11; reduction in annualized relapse rate (ARR) compared to Aubagio (teriflunomide) (MS patients [9]; ASCLEPIOS I): 50.5%; annualized relapse rate (ARR) (MS patients [9]; ASCLEPIOS II): 0.10; reduction in annualized relapse rate (ARR) compared to Aubagio (teriflunomide) (MS patients [9]; ASCLEPIOS II): 58.5%; relative risk reduction in 3-month confirmed disability progression (CDP) versus Aubagio (MS patients [9]; pre-specified pooled analyses, p=0.002): 34.4%; relative risk reduction in 6-month confirmed disability progression (CDP) versus Aubagio (MS patients [9]; pre-specified pooled analyses, p=0.012): 32.5%

**Q.** With “rituximab: anti-CD20 mAb administered by intravenous infusion” as the compound, how does the “clinical and MRI course after anti-CD20 infusion” value [3] read?
**A.** The value was “clinical worsening; also recorded: persistent Gd-enhancing lesions”.
